Measurements from US4732970A, “Antitumor amino acid and peptide derivatives of 1,4-bis(aminoalkyl and hydroxy-aminoalkyl)amino)-5,8-dihydroxyanthraquinones” (priority 1986, dated 1988).

System: lymphocytic leukemia P388
Assay: Lymphocytic Leukemia P388 Test
Type: in vivo, BDF1 mice
Settings: for Median Survival: BDF1 mice; for T/C × 100 (%): ratio of survival time treated/control
Procedure, shortened: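 BDF1 mice (5–6 per group) were inoculated i.p. with 10^6 P388 cells, then dosed i.p. on days 1, 5 and 9 at various doses. Survival was followed for 60 days, and median survival time and the treated/control (T/C) survival ratio were calculated.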

[1] = dose 0.75 mg/kg intraperitoneally on days 1, 5 and 9
[2] = dose 1.5 mg/kg intraperitoneally on days 1, 5 and 9
[3] = dose 3 mg/kg intraperitoneally on days 1, 5 and 9

| Structure (SMILES) | Median Survival [1] [days] | T/C × 100 (%) [1] [%] | Median Survival [2] [days] | T/C × 100 (%) [2] [%] | Median Survival [3] [days] | T/C × 100 (%) [3] [%] |
| --- | --- | --- | --- | --- | --- | --- |
| C[C@H](NC(=O)[C@H](CO)NC(=O)[C@H](CC(=O)OC(C)(C)C)NC(=O)OCC1c2ccccc2-c2ccccc21)C(=O)NCCNc1ccc(NCCNC(=O)[C@H](C)NC(=O)[C@H](CO)NC(=O)[C@H](CC(=O)OC(C)(C)C)NC(=O)OCC2c3ccccc3-c3ccccc32)c2c1C(=O)c1c(O)ccc(O)c1C2=O [Example 77, N,N'-[(9,10-Dihydro-5,8-dihydroxy-9,10-dioxo-1,4-anthracenediyl)bis(imino-2,1-ethanediyl)]bis[N-[(9H-fluoren-9-ylmethoxy)carbonyl]-L-α-aspartyl-L-seryl-L-alaninamide]bis(1,1-dimethylethyl)ester] | 20.0 | 167 | 20.0 | 167 | 22.5 | 188 |
| C[C@H](NC(=O)[C@H](CO)NC(=O)[C@@H](N)CC(=O)OC(C)(C)C)C(=O)NCCNc1ccc(NCCNC(=O)[C@H](C)NC(=O)[C@H](CO)NC(=O)[C@@H](N)CC(=O)OC(C)(C)C)c2c1C(=O)c1c(O)ccc(O)c1C2=O [Example 78, N,N'-[(9,10-Dihydro-5,8-dihydroxy-9,10-dioxo-1,4-anthracenediyl)bis(imino-2,1-ethanediyl)]bis[L-α-aspartyl-L-seryl-L-alaninamide]bis(1,1-dimethylethyl)ester] | 18.0 | 150 | 23.0 | 192 | 22.5 | 188 |
| C[C@H](NC(=O)[C@H](C)NC(=O)[C@H](CC(=O)OC(C)(C)C)NC(=O)OCC1c2ccccc2-c2ccccc21)C(=O)NCCNc1ccc(NCCNC(=O)[C@H](C)NC(=O)[C@H](C)NC(=O)[C@H](CC(=O)OC(C)(C)C)NC(=O)OCC2c3ccccc3-c3ccccc32)c2c1C(=O)c1c(O)ccc(O)c1C2=O [Example 79, N,N'-[(9,10-Dihydro-5,8-dihydroxy-9,10-dioxo-1,4-anthracenediyl)bis(imino-2,1-ethanediyl)]bis[N-[(9H-fluoren-9-ylmethoxy)carbonyl]-L-α-aspartyl-L-alanyl-L-alaninamide]bis(1,1-dimethylethyl)ester] | 18.5 | 168 | 18.0 | 164 | 19.0 | 173 |
| CC(NC(=O)C(N)CC(=O)OC(C)(C)C)C(=O)NC(C)C(=O)NCCNc1ccc(NCCNC(=O)C(C)NC(=O)C(C)NC(=O)C(N)CC(=O)OC(C)(C)C)c2c1C(=O)c1c(O)ccc(O)c1C2=O [Example 80, N,N'-[(9,10-Dihydro-5,8-dihydroxy-9,10-dioxo-1,4-anthracenediyl)bis(imino-2,1-ethanediyl)]bis[L-α-aspartyl-L-alanyl-L-alaninamide]bis(1,1-dimethylethyl)ester] | 19.0 | 173 | 19.5 | 177 | 26.0 | 236 |
| CC(C)C[C@H](NC(=O)[C@H](C)NC(=O)[C@H](CC(=O)OC(C)(C)C)NC(=O)OCC1c2ccccc2-c2ccccc21)C(=O)NCCNc1ccc(NCCNC(=O)[C@H](CC(C)C)NC(=O)[C@H](C)NC(=O)[C@H](CC(=O)OC(C)(C)C)NC(=O)OCC2c3ccccc3-c3ccccc32)c2c1C(=O)c1c(O)ccc(O)c1C2=O [Example 81, N,N'-[(9,10-Dihydro-5,8-dihydroxy-9,10-dioxo-1,4-anthracenediyl)bis(imino-2,1-ethanediyl)]bis[N-[(9H-fluoren-9-ylmethoxy)carbonyl]-L-α-aspartyl-L-alanyl-L-leucinamide]bis(1,1-dimethylethyl)ester] | 16.0 | 145 | 18.5 | 168 | 19.0 | 173 |
| CC(C)C[C@H](NC(=O)[C@H](C)NC(=O)[C@@H](N)CC(=O)OC(C)(C)C)C(=O)NCCNc1ccc(NCCNC(=O)[C@H](CC(C)C)NC(=O)[C@H](C)NC(=O)[C@@H](N)CC(=O)OC(C)(C)C)c2c1C(=O)c1c(O)ccc(O)c1C2=O [Example 82, N,N'-[(9,10-Dihydro-5,8-dihydroxy-9,10-dioxo-1,4-anthracenediyl)bis(imino-2,1-ethanediyl)]bis[L-α-aspartyl-L-alanyl-L-leucinamide]bis(1,1-dimethylethyl)ester] | 21.0 | 191 | 19.0 | 173 | 19.0 | 173 |
| C[C@H](NC(=O)[C@H](C)NC(=O)[C@@H](N)CC(=O)O)C(=O)NCCNc1ccc(NCCNC(=O)[C@H](C)NC(=O)[C@H](C)NC(=O)[C@@H](N)CC(=O)O)c2c1C(=O)c1c(O)ccc(O)c1C2=O.O=C(O)C(F)(F)F.O=C(O)C(F)(F)F [Example 83] | 22.0 | 220 | 22.5 | 225 | 38.5 | 385 |
| CC(C)C[C@H](NC(=O)[C@H](C)NC(=O)[C@@H](N)CC(=O)O)C(=O)NCCNc1ccc(NCCNC(=O)[C@H](CC(C)C)NC(=O)[C@H](C)NC(=O)[C@@H](N)CC(=O)O)c2c1C(=O)c1c(O)ccc(O)c1C2=O.O=C(O)C(F)(F)F.O=C(O)C(F)(F)F [Example 84, N,N'-[(9,10-Dihydro-5,8-dihydroxy-9,10-dioxo-1,4-anthracenediyl)bis(imino-2,1-ethanediyl)]bis[L-α-aspartyl-L-alanyl-L-leucinamide]bis(trifluoroacetate)] | 24.0 | 240 | 21.5 | 215 | 28.0 | 280 |
| Br.Br.N=C(N)NCCC[C@H](N)C(=O)NCCNc1ccc(NCCNC(=O)[C@@H](N)CCCNC(=N)N)c2c1C(=O)c1c(O)ccc(O)c1C2=O [Example 86, N,N'-[(9,10-Dihydro-5,8-dihydroxy-9,10-dioxo-1,4-anthracenediyl)bis(imino-2,1-ethanediyl)]-L-arginine, dihydrobromide] | 22.0 | 200 | 27.0 | 245 | 34.5 | 314 |
